Reference: patent US12560591B2, “Methods of treatment with CD8 T cell-mediated immune therapy” (Providence Health & Services—Oregon, priority 2019, dated 2026)

Legend:
[1] = tested on: CT26 tumors; assay: CT26 tumor model: ALK5 inhibitor with chemoradiation (RT+5FU), tumor growth and survival; type: in vivo, mouse; conditions: FIG. 6B
Description: FIGS. 1A-1D are a series of panels showing that the TGFβR1 antagonist LY2157299 enhances chemo-radiation efficacy dependent on CD8α^+ cells in CT26 tumors. FIG. 1A is a treatment schema in the CT26 tumor model. Six to eight week old BALB/c mice were implanted subcutaneously in the left flank with 2×10^5 CT26 tumor cells. Seven days following implant, animals were randomized based on tumor size, and vehicle control or LY2157299 compound were administered by oral gavage twice daily every 12 hours at 150 mg/kg for 7 consecutive days. At day 14, some mice received five consecutive radiation treatments of 5 Gy targeted to tumor tissue along with 25 mg/kg injections of 5-fluorouracil (5FU) chemotherapy administered intraperitoneally on days 14, 16, and 18. LY treatment groups resumed BID oral dosing from days 21-27. Mean tumor growth (i) and survival (ii) were assessed three times per week up to 100 days or death (FIG. 1B). […] Arrows identify pSMAD2^+CD8^+ cells in vehicle mice. […] NS=not significant, *=p<0.05, **=p<0.01, ***=p<0.001.
(§1) FIGS. 6A-6D are a series of panels showing generation of tumor-specific immune memory following tumor eradication with TGFβ inhibition with chemoradiation. […] The number of mice cured over the total number of mice in each group is indicated in the top right corner. One representative experiment is shown reflective of two independent experiments. Mice who eradicated their tumors were rechallenged with CT26 and 4T1 tumors. CT26 tumor cells were rechallenged on the opposite flank as from the original cured tumor. In FIG. 6D, 4T1 and CT26 tumor establishment and growth was followed for up to 60 days post re-challenge. The number of tumors rejected per total mice rechallenged in each tumor type is indicated in the top right portion of the graph. ***=p<0.001
Animal studies and cell culture: C57BL/6, BALB/c, CD8Cre, Lyz2Cre, and Foxp3-eGFP-CreERT2 mice were purchased from the Jackson Laboratories (Bar Harbor, Maine). ALK5flox/flox mice were a generous gift from Andrew Weinberg (Providence Cancer Center). All transgenic mice were on C57BL/6 background. CT26, MC38, 4T1 and MCA205-OVA tumor cells were grown in DMEM medium supplemented with 10% heat-inactivated fetal bovine serum and 1% penicillin-streptomycin to 60-90% confluence prior to tumor implantation. All cells were washed 2× with 1×PBS and implanted subcutaneously in a 100 μl volume of 1×PBS in the lower flanks. 1×10^5 MC38 cells, 2×10^5 CT26 cells, 5×10^4 4 T1 cells, and 5×10^6 MCA205-OVA cells were used for tumor induction. Tumors were measured 3×/week until they reached the survival end-point of 144 mm^2. […] Following single cell preparation, cells were washed and resuspended in FACS buffer (1×PBS, 1% BSA, 2 mM EDTA) and counted prior to FACS staining using a Guava EasyCyte cytometer (Millipore). […]

[2] = tested on: CT26 cells; assay: Rechallenge of cured mice with CT26 cells; type: in vivo, mouse; conditions: cured animals (RT/5-FU/LY3200882), rechallenge at day 73 post-implant, FIG. 6C-D
Excerpt: as §1
(§2) In order to evaluate whether the improved efficacy of RT+5FU+LY (FIG. 1B) was due to the direct effect of ALK5 inhibition on CD8^+ T cells, LY treatment in ALK5^ΔCD8 mice was tested.

[3] = tested on: 4T1 cell line; assay: Rechallenge of cured mice with 4T1 cells; type: in vivo, mouse; conditions: cured animals (RT/5-FU/LY3200882), 4T1 implanted simultaneously on opposite flank, FIG. 6C-D
Excerpt: as §1, §2

[4] = tested on: peripheral blood CD3^+CD4^−CXCR3^+ T cells; assay: HNSCC patients, neoadjuvant anti-PD-1: peripheral blood CXCR3+ T cells; type: in vivo, human; conditions: one week after first dose of nivolumab 240 mg IV, FIG. 13B
Description: FIGS. 13A-13D are a series of panels showing change in CXCR3^+ cells in response to checkpoint blockade. […] Peripheral blood was drawn at baseline and one week after anti-PD-1 therapy (nivolumab). Surgery was performed at week six for pathologic assessment. […] Patients are grouped by nodal status following neoadjuvant treatment (ypN). FIGS. 13C and 13D show HPV+ patients from FIG. 13B and HPV-patients from FIG. 13B, respectively. Given the low number of patient(s) with residual nodal disease (ypN+), statistics could not be accurately performed in the HPV+ and HPV− subgroups.
Patients with locoregionally advanced HNSCC were treated with anti-PD-1 (nivolumab, 240 mg, IV) three times Q2W. Radiation was administered following the first anti-PD-1 treatment, and surgery was performed at week 6 to assess pathologic status. Patients also received stereotactic body radiation therapy (SBRT) following the first dose of nivolumab. Peripheral blood was drawn at baseline and one week after administration of the first dose of nivolumab. […] As HPV+ and HPV-HNSCC have marked differences in natural history and/or behavior, these cohorts were also analyzed separately (FIGS. 13C and 13D). When comparing response to neoadjuvant therapy in the HPV+ and HPV− cohorts separately, the change in percent CXCR3^+CD3^+CD4^− T cells was more distinct.

CC(C)(O)c1cc(Nc2cc(Oc3cn(C4CC4)nc3C3CCOCC3)ccn2)ccn1 [LY3200882]
tumor cures (animals cured of total) ([1]; CT26, LY3200882 with chemoradiation (RT/5-FU)): 6 of 7 | median survival ([1]; CT26, LY3200882 with chemoradiation, p<0.001 vs RT+5FU): not reached | tumor rechallenge outcome [2]: rejected tumor rechallenge | tumor rechallenge outcome [3]: but not the immunologically distinct 4T1 cell line

nivolumab: anti-PD-1 antibody
change in peripheral blood CD3^+CD4^−CXCR3^+ T cells vs nodal status [4]: decrease in CD3^+CD4^−CXCR3^+ T cells following neoadjuvant nivolumab correlated with clearance of nodal disease
